In patent publication US8569289B2, “Fumarate salt of 4-bromophenyl 1,4-diazabicyclo[3.2.2]nonane-4-carboxylate, crystalline forms thereof, preparation thereof and therapeutic use thereof” (Sanofi, priority 2008, dated 2013):

Columns and labels:
[1] = type: physicochemical
From the text: In contrast, the fumarate salt of 4-bromophenyl 1,4-diazabicyclo[3.2.2]nonane-4-carboxylate crystallizes in two nonhygroscopic polymorphic forms (forms I and II). […] This property of the two polymorphic forms of the fumarate salt of 4-bromophenyl 1,4-diazabicyclo[3.2.2]nonane-4-carboxylate is an advantage in comparison with the hydrochloride salt of 4-bromophenyl 1,4-diazabicyclo[3.2.2]nonane-4-carboxylate.

[2] = Thermal stability in the solid state - quantitative determination of nondecomposed product and impurities by HPLC; type: physicochemical; conditions: for Sum % imp. quantified (% surf.): HPLC UV 220 nm; for Non-decomposed base / product (%): HPLC, % (w/w) of nondecomposed base
Method: (§1) The base and the fumarate salt of the compound of formula (I) are analyzed after 1, 7 and 14 days of storage at: • 80° C.; • 80° C. and under 80% relative humidity (RH). Appearance
Quantitative Determination of the Nondecomposed Product and Percentage of Impurities
Chromatographic Conditions
Column: Inertsil ODS 3 150×4.6 mm, 5 μm, maintained at 25° C.
Buffer pH 4.5: 0.01M KH2PO4, 0.5 g/l sodium heptanesulfonate pH adjusted to 4.5 with 1M KOH
Phase A: 90 V buffer pH 4.5
• 10 V acetonitrile Phase B: 20 V buffer pH 4.5 • 80 V acetonitrile Gradient: from 100% of phase A to 80% of phase B in 40 min Flow rate: 1.0 ml/min Detection: UV, λ=220 nm (optical path: 1 cm) Solutions injected: 0.2 mg (base or salt)/ml solutions in a mixture of 50 volumes of water and 50 volumes of acetonitrile. Comment: for the quantitative determinations, the results obtained are expressed in % (w/w) of nondecomposed base (by calibrating with nondecomposed base or salt controls stored at ambient temperature).
Comment: the sum of the impurities quantified may be less after storing at 80° C. under 80% relative humidity because impurities may decompose to give products which cannot be detected by UV or which are not separated by the analytical conditions.

[3] = Test of thermal stability in the solid state - appearance; type: physicochemical
Method: Test of thermal stability in the solid state
as §1
In contrast, the appearance of the fumarate salt of the compound of formula (I) remains unchanged.

[4] = Instantaneous solubility tests; type: physicochemical
Method: The instantaneous solubilities of the base and of the fumarate salt of the compound of formula (I) were determined in the following media: • water; • buffer pH 1.2: 0.01M KH2PO4, pH adjusted with orthophosphoric acid; • buffer pH 7.2: 0.2M KH2PO4, pH adjusted with KOH; • buffer pH 9.0: 0.04M Na2B4O7.10H2O, pH adjusted with boric acid; • dimethyl sulfoxide (DMSO).
Determination of the instantaneous solubilities: successive volumes of the medium are added to the test specimen until the compound has dissolved. Stirring is carried out with a vortex mixer at ambient temperature.
Information on the corresponding classification according to the European Pharmacopoeia is also given therein.

[5] = solid state, 80° C./80% RH, 7 d
[6] = solid state, 80° C./80% RH, 14 d
[7] = solid state, 80° C./80% RH, 1 d
[8] = buffer pH 1.2, ambient temperature
[9] = buffer pH 7.2, ambient temperature
[10] = buffer pH 9.0, ambient temperature

## O=C(O)/C=C/C(=O)O.O=C(Oc1ccc(Br)cc1)N1CCN2CCC1CC2 [form I, fumarate salt of 4-bromophenyl 1,4-diazabicyclo[3.2.2]nonane-4-carboxylate]
[1]
  Hygroscopicity of the polymorphic form: nonhygroscopic
[1]; water in the vapor or liquid form
  Impact of water on the crystalline form: no impact on the crystalline form

## O=C(O)/C=C/C(=O)O.O=C(Oc1ccc(Br)cc1)N1CCN2CCC1CC2 [Fumarate, fumarate salt of 4-bromophenyl 1,4-diazabicyclo[3.2.2]nonane-4-carboxylate]
[2]; Initial
  Sum % imp. quantified (% surf.): 0.32 % surf.
[2]; solid state, 80° C., 7 d
  Sum % imp. quantified (% surf.): 0.60 % surf.
  Non-decomposed base / product (%): 99.6%
[2]; solid state, 80° C., 14 d
  Sum % imp. quantified (% surf.): 0.53 % surf.
  Non-decomposed base / product (%): 100%
[2]; [5]
  Sum % imp. quantified (% surf.): 0.74 % surf.
  Non-decomposed base / product (%): 99.7%
[2]; [6]
  Sum % imp. quantified (% surf.): 0.83 % surf.
  Non-decomposed base / product (%): 100%
[3]; Initial appearance
  Appearance: White powder
[3]; solid state, 80° C., 1 d
  Appearance: unchanged
[3]; solid state, 80° C., 7 d
  Appearance: unchanged
[3]; solid state, 80° C., 14 d
  Appearance: unchanged
[3]; [7]
  Appearance: unchanged
[3]; [5]
  Appearance: unchanged
[3]; [6]
  Appearance: unchanged
[4]; DMSO
  Solubility classification according to the European Pharmacopoeia: Freely soluble
[4]; DMSO, ambient temperature
  Instantaneous solubility: ~140 g of product/l
[4]; Water
  Solubility classification according to the European Pharmacopoeia: Sparingly soluble
[4]; Water, ambient temperature
  Instantaneous solubility: ~27 g of product/l
[4]; buffer pH 1.2
  Solubility classification according to the European Pharmacopoeia: Sparingly soluble
[4]; [8]
  Instantaneous solubility: ~16 g of product/l
[4]; buffer pH 7.2
  Solubility classification according to the European Pharmacopoeia: Soluble
[4]; [9]
  Instantaneous solubility: ~75 g of product/l
[4]; buffer pH 9.0
  Solubility classification according to the European Pharmacopoeia: Soluble
[4]; [10]
  Instantaneous solubility: ~68 g of product/l

## Cl.O=C(Oc1ccc(Br)cc1)N1CCN2CCC1CC2 [hydrochloride, hydrochloride salt of 4-bromophenyl 1,4-diazabicyclo[3.2.2]nonane-4-carboxylate]
[1]
  Forms shown by the water sorption/desorption isotherm: present in a hemihydrate form and two anhydrous forms
[1]; under the effect of temperature or when flushing with nitrogen
  Stability of the water stoichiometry: has a tendency to lose its water stoichiometry

## O=C(Oc1ccc(Br)cc1)N1CCN2CCC1CC2 [Base, 4-Bromophenyl 1,4-diazabicyclo[3.2.2]nonane-4-carboxylate]
[2]; Initial
  Sum % imp. quantified (% surf.): 4.02 % surf.
[2]; solid state, 80° C., 7 d
  Sum % imp. quantified (% surf.): 3.57 % surf.
  Non-decomposed base / product (%): 100%
[2]; solid state, 80° C., 14 d
  Sum % imp. quantified (% surf.): 3.14 % surf.
  Non-decomposed base / product (%): 99.9%
[2]; [5]
  Sum % imp. quantified (% surf.): 4.37 % surf.
  Non-decomposed base / product (%): 98.7%
[2]; [6]
  Sum % imp. quantified (% surf.): 4.53 % surf.
  Non-decomposed base / product (%): 98.3%
[3]; Initial appearance
  Appearance: Virtually white
[3]; solid state, 80° C., 1 d
  Appearance: Pale yellow
[3]; solid state, 80° C., 7 d
  Appearance: Pale yellow
[3]; solid state, 80° C., 14 d
  Appearance: Pale yellow
[3]; [7]
  Appearance: Yellow-brown
[3]; [5]
  Appearance: Brown
[3]; [6]
  Appearance: Brown
[4]; DMSO
  Solubility classification according to the European Pharmacopoeia: Soluble
[4]; DMSO, ambient temperature
  Instantaneous solubility: ~75 g of product/l
[4]; Water
  Solubility classification according to the European Pharmacopoeia: Slightly soluble
[4]; Water, ambient temperature
  Instantaneous solubility: <2 g of product/l
[4]; buffer pH 1.2
  Solubility classification according to the European Pharmacopoeia: Freely soluble
[4]; [8]
  Instantaneous solubility: 140 g of product/l
[4]; buffer pH 7.2
  Solubility classification according to the European Pharmacopoeia: Slightly soluble
[4]; [9]
  Instantaneous solubility: <2 g of product/l
[4]; buffer pH 9.0
  Solubility classification according to the European Pharmacopoeia: Slightly soluble
[4]; [10]
  Instantaneous solubility: <2 g of product/l
